Measurements taken from ChEMBL document CHEMBL1201862, “PubChem BioAssay data set” (2004).
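How tested: cells in 96-well plates exposed to compound for 48 hours at five concentrations. GI50 = concentration required for 50% inhibition of growth.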 Active and inactive are the calls of the source. No stated cut-off is given here; in the data, active = GI50 up to about 1.1 µM and inactive = higher.

Legend:
Assay in all cases: NCI tumour cell line growth inhibition, 48 h
CAKI-1 = test system: CAKI-1
OVCAR-4 = test system: OVCAR-4
NCI-H460 = test system: NCI-H460
RPMI-8226 = test system: RPMI-8226
UACC-62 = test system: UACC-62
A549 = test system: A549
SNB-75 = test system: SNB-75
NCI/ADR-RES = test system: NCI/ADR-RES
OVCAR-5 = test system: OVCAR-5
HT-29 = test system: HT-29
SF-268 = test system: SF-268
SNB-19 = test system: SNB-19
ACHN = test system: ACHN
SK-OV-3 = test system: SK-OV-3
HCT-15 = test system: HCT-15
HCT-116 = test system: HCT-116
PC-3 = test system: PC-3
CCRF-CEM = test system: CCRF-CEM
TK-10 = test system: TK-10
SR = test system: SR

SMILES	GI50 (CAKI-1)	GI50 (OVCAR-4)	GI50 (NCI-H460)	GI50 (RPMI-8226)	GI50 (UACC-62)	GI50 (A549)	GI50 (SNB-75)	GI50 (NCI/ADR-RES)	GI50 (OVCAR-5)	GI50 (HT-29)	GI50 (SF-268)	GI50 (SNB-19)	GI50 (ACHN)	GI50 (SK-OV-3)	GI50 (HCT-15) [µM]	GI50 (HCT-116)	GI50 (PC-3)	GI50 (CCRF-CEM)	GI50 (TK-10)	GI50 (SR)
Nc1ccc2c(c1)N(C(=O)c1cc3cc(NC(=O)c4cc5ccccc5o4)ccc3[nH]1)CC2CCl (centres undefined)	0.0338 µM (active)	0.0605 µM (active)	0.0205 µM (active)	0.0284 µM (active)	0.112 µM (active)	0.0299 µM (active)	0.153 µM (active)	0.0332 µM (active)	0.114 µM (active)	0.129 µM (active)	0.0498 µM (active)	0.277 µM (active)	0.0199 µM (active)	0.128 µM (active)	0.0847	0.0533 µM (active)	0.0671 µM (active)	0.0405 µM (active)	0.283 µM (active)	
CCOC(=O)c1cc2c(C(=O)c3ccc([N+](=O)[O-])cc3)c(C(C)=O)ccc2[nH]1	18.3 µM (inactive)	5.52 µM (inactive)	82.6 µM (inactive)	> 100 µM (inactive)	> 100 µM (inactive)	39.4 µM (inactive)	11.6 µM (inactive)		> 100 µM (inactive)	> 100 µM (inactive)	8.3 µM (inactive)	22.1 µM (inactive)	28.7 µM (inactive)	9.06 µM (inactive)	50	45.6 µM (inactive)	> 100 µM (inactive)	> 100 µM (inactive)	22.2 µM (inactive)	> 100 µM (inactive)
O=C(c1ccco1)N(C(=S)N1CCN(c2ccccn2)CC1)C1CCCCC1	> 100 µM (inactive)	> 100 µM (inactive)	> 100 µM (inactive)	> 100 µM (inactive)	> 100 µM (inactive)	> 100 µM (inactive)	> 100 µM (inactive)		> 100 µM (inactive)	> 100 µM (inactive)	> 100 µM (inactive)	> 100 µM (inactive)	> 100 µM (inactive)	> 100 µM (inactive)	> 100	> 100 µM (inactive)		> 100 µM (inactive)	> 100 µM (inactive)	> 100 µM (inactive)
C=C(C)[C@H]1C2=CC(C(=O)OC)=C(C[C@H](C(=C)C)[C@@H](O)[C@@H](O)C3=C[C@H]1OC3=O)O2	> 100 µM (inactive)	> 100 µM (inactive)		> 100 µM (inactive)	> 100 µM (inactive)	> 100 µM (inactive)	37.7 µM (inactive)	> 100 µM (inactive)	> 100 µM (inactive)	> 100 µM (inactive)	> 100 µM (inactive)	> 100 µM (inactive)	> 100 µM (inactive)	> 100 µM (inactive)	59.8	> 100 µM (inactive)		87.9 µM (inactive)	> 100 µM (inactive)	
CN(Cc1ccccc1)c1nc(=[N+](C)C)ss1	> 100 µM (inactive)	> 100 µM (inactive)	16.9 µM (inactive)	28.3 µM (inactive)	24.6 µM (inactive)	33.2 µM (inactive)	> 100 µM (inactive)		> 100 µM (inactive)	74.8 µM (inactive)	49.1 µM (inactive)	86.5 µM (inactive)	> 100 µM (inactive)	96.8 µM (inactive)	> 100	34.6 µM (inactive)		3.55 µM (inactive)	35.2 µM (inactive)	44.2 µM (inactive)
CCOC(=O)CC(=O)C(=O)NN=C1NCCCN1		> 100 µM (inactive)	> 100 µM (inactive)	> 100 µM (inactive)	> 100 µM (inactive)	> 100 µM (inactive)	> 100 µM (inactive)		> 100 µM (inactive)	> 100 µM (inactive)	> 100 µM (inactive)	> 100 µM (inactive)	> 100 µM (inactive)	> 100 µM (inactive)	> 100	> 100 µM (inactive)	> 100 µM (inactive)	> 100 µM (inactive)	> 100 µM (inactive)	> 100 µM (inactive)
CN(C)c1ccc(/C=N/NC2=N/C(=C\c3ccco3)C(=O)N2)cc1	> 100 µM (inactive)		> 100 µM (inactive)	> 100 µM (inactive)	> 100 µM (inactive)	> 100 µM (inactive)	> 100 µM (inactive)	> 100 µM (inactive)	> 100 µM (inactive)	> 100 µM (inactive)	> 100 µM (inactive)	> 100 µM (inactive)	> 100 µM (inactive)	> 100 µM (inactive)	> 100	> 100 µM (inactive)	> 100 µM (inactive)	> 100 µM (inactive)	> 100 µM (inactive)	
O=C(Cn1c(=O)ccn(C2OC(CO)C(O)C2F)c1=O)c1ccc(F)cc1 (centres undefined)	> 100 µM (inactive)		> 100 µM (inactive)	> 100 µM (inactive)	> 100 µM (inactive)	> 100 µM (inactive)	82.2 µM (inactive)	> 100 µM (inactive)	> 100 µM (inactive)	> 100 µM (inactive)	> 100 µM (inactive)	> 100 µM (inactive)	> 100 µM (inactive)		> 100	> 100 µM (inactive)	> 100 µM (inactive)	> 100 µM (inactive)	> 100 µM (inactive)	
Cn1c(S)nnc1CNc1ccc(-c2nnc(S)n2C)cc1	> 100 µM (inactive)	> 100 µM (inactive)	> 100 µM (inactive)			> 100 µM (inactive)	> 100 µM (inactive)	> 100 µM (inactive)	> 100 µM (inactive)	> 100 µM (inactive)	> 100 µM (inactive)	> 100 µM (inactive)	> 100 µM (inactive)	> 100 µM (inactive)	> 100	> 100 µM (inactive)	> 100 µM (inactive)	> 100 µM (inactive)	> 100 µM (inactive)	
CCCCCCc1cc2cc(C(=O)Nc3ccccc3)c(=N)oc2cc1O	4.58 µM (inactive)	4.13 µM (inactive)	3.24 µM (inactive)	4.08 µM (inactive)	2.26 µM (inactive)	3.27 µM (inactive)	> 23 µM (inactive)	3.27 µM (inactive)	> 83.6 µM (inactive)	3.28 µM (inactive)	4.85 µM (inactive)	3.33 µM (inactive)	3.44 µM (inactive)	3.34 µM (inactive)	3.45	2.5 µM (inactive)	2.86 µM (inactive)	3.47 µM (inactive)	6.78 µM (inactive)	
COc1ccc(/C=C2\C(=O)N(C)C(=O)c3cc(OC)c(OC)cc32)cc1OC	13.4 µM (inactive)	38.9 µM (inactive)	37.5 µM (inactive)	27.7 µM (inactive)	26.9 µM (inactive)	65.6 µM (inactive)			48.9 µM (inactive)	9.06 µM (inactive)		43.3 µM (inactive)	30.5 µM (inactive)		30.8	29.4 µM (inactive)	49.7 µM (inactive)	20.2 µM (inactive)	43.1 µM (inactive)	19.2 µM (inactive)
COc1cc(NS(C)(=O)=O)ccc1NCc1c2ccccc2nc2ccccc12	21.7 µM (inactive)	0.0571 µM (active)	34.5 µM (inactive)	22.5 µM (inactive)	> 100 µM (inactive)	67 µM (inactive)	> 100 µM (inactive)		> 100 µM (inactive)	31.6 µM (inactive)	32.1 µM (inactive)	51.8 µM (inactive)	29.4 µM (inactive)	> 100 µM (inactive)	21.7	3.45 µM (inactive)		4.18 µM (inactive)	> 100 µM (inactive)	4.71 µM (inactive)
CSC1(CC(=O)N2CCCCC2)C(=O)Nc2ccccc21 (centres undefined)		> 100 µM (inactive)	> 100 µM (inactive)	> 100 µM (inactive)	> 100 µM (inactive)	> 100 µM (inactive)	> 100 µM (inactive)	> 100 µM (inactive)	> 100 µM (inactive)	> 100 µM (inactive)	> 100 µM (inactive)	> 100 µM (inactive)	> 100 µM (inactive)	> 100 µM (inactive)	> 100	> 100 µM (inactive)	> 100 µM (inactive)		> 100 µM (inactive)	
COC(=O)C1CCC(=O)N1CN(C(C)=O)c1cccc(O)c1 (centres undefined)	> 100 µM (inactive)	> 100 µM (inactive)	> 100 µM (inactive)	> 100 µM (inactive)	> 100 µM (inactive)	> 100 µM (inactive)	> 100 µM (inactive)	> 100 µM (inactive)	> 100 µM (inactive)	> 100 µM (inactive)	> 100 µM (inactive)	> 100 µM (inactive)	> 100 µM (inactive)	> 100 µM (inactive)	> 100	> 100 µM (inactive)	> 100 µM (inactive)		> 100 µM (inactive)	
O=[N+]([O-])CCc1cccc([N+](=O)[O-])c1	> 100 µM (inactive)	> 100 µM (inactive)	> 100 µM (inactive)	> 100 µM (inactive)	> 100 µM (inactive)	> 100 µM (inactive)	> 100 µM (inactive)		> 100 µM (inactive)	> 100 µM (inactive)	> 100 µM (inactive)	> 100 µM (inactive)	> 100 µM (inactive)		> 100	> 100 µM (inactive)		> 100 µM (inactive)	> 100 µM (inactive)	> 100 µM (inactive)
C#CCNC(=O)NC(CCCNC(=O)OCc1ccccc1)C(=O)OCc1ccccc1 (centres undefined)	33.8 µM (inactive)	> 100 µM (inactive)	46.2 µM (inactive)	> 100 µM (inactive)	34.8 µM (inactive)	> 100 µM (inactive)	82.4 µM (inactive)		> 100 µM (inactive)	> 100 µM (inactive)	> 100 µM (inactive)	> 100 µM (inactive)	> 100 µM (inactive)	> 100 µM (inactive)	> 100	> 100 µM (inactive)		> 100 µM (inactive)	> 100 µM (inactive)	> 100 µM (inactive)
